Test results as given in ChEMBL document CHEMBL4739712, “Inhibitors of cyclin-dependent kinases” (2020).
Activity calls are given as the source filed them. The rule behind the calls is not given here.

Assays:
[1] = target: T1, Cyclin-dependent kinase 12/13 (Homo sapiens) (UniProt Q14004+Q9NYV4); conditions: Jurkat, dose 25.0 nM, time 6.0 hrs
[2] = target: T1, Cyclin-dependent kinase 12/13 (Homo sapiens); conditions: Jurkat, dose 500.0 nM, time 6.0 hrs
[3] = target: T1, Cyclin-dependent kinase 12/13 (Homo sapiens); conditions: Jurkat, dose 500.0 nM, time 4.0 hrs

inhibition [1] | inhibition [2] | inhibition [3] | SMILES
inactive | Active |  | C=CC(=O)Nc1cccc(C(=O)N2CCCC(Nc3ncc(SCc4ncc(C(C)(C)C)o4)s3)C2)c1 (stereo not given)
 | Active |  | CN(C)C/C=C/C(=O)NC1CCCC(C(=O)Nc2ncc(SCc3ncc(C(C)(C)C)o3)s2)C1 (stereo not given)
 | Active |  | C=CC(=O)Nc1ccc(OC(=O)N2CCC[C@@H](Nc3ncc(SCc4ncc(C(C)(C)C)o4)s3)C2)cc1
 |  | Active | C=CC(=O)Nc1ccc(C(=O)N2CCC[C@@H](Nc3ncc(SCc4ncc(C(C)(C)C)o4)s3)C2)c(C)c1
